Measured values as given in the kinase profiling compilation of Christmann-Franck et al. (2016).

Tests used:
Experiment in all cases: radiometric filter-binding kinase assay
[1] = target: CDK2 CCNA2 (human) (UniProt P20248+P24941)
[2] = target: MARK4 (human) (UniProt Q96L34)
[3] = target: MAP3K5 (human) (UniProt Q99683)
[4] = target: PIM1 (human) (UniProt P11309)
[5] = target: CHEK1 (human) (UniProt O14757)
[6] = target: MKNK2 (human) (UniProt Q9HBH9)
[7] = target: TTK (human) (UniProt P33981)
[8] = target: PKN2 (human) (UniProt Q16513)
[9] = target: DAPK1 (human) (UniProt P53355)
[10] = target: YES1 (human) (UniProt P07947)
[11] = target: RPS6KA5 KD1 KD2 (human) (UniProt O75582)
[12] = target: IKBKB (human) (UniProt O14920)
[13] = target: MAPK9 (human) (UniProt P45984)
[14] = target: EPHB1 (human) (UniProt P54762)
[15] = target: MAPKAPK2 (human) (UniProt P49137)
[16] = target: INSRR (human) (UniProt P14616)
[17] = target: MYLK (human) (UniProt Q15746)
[18] = target: EPHB4 (human) (UniProt P54760); settings: compound 100.0 µM
[19] = target: BTK (human) (UniProt Q06187); settings: compound 1000.0 µM
[20] = target: SRPK1 (human) (UniProt Q96SB4)
[21] = target: MAP2K1 (human) (UniProt Q02750)
[22] = target: EEF2K (human) (UniProt O00418)
[23] = target: MAP2K2 (human) (UniProt P36507)
[24] = target: PIM3 (human) (UniProt Q86V86)
[25] = target: MAP3K9 (human) (UniProt P80192)
[26] = target: EPHA4 (human) (UniProt P54764)
[27] = target: NEK6 (human) (UniProt Q9HC98); settings: compound 10.0 µM
[28] = target: PAK6 (human) (UniProt Q9NQU5)
[29] = target: TBK1 (human) (UniProt Q9UHD2)
[30] = target: MARK3 (human) (UniProt P27448)
[31] = system: PAK2 (human), Q13177 [T402E]
[32] = system: RPS6KB1 (human), P23443 [T412E]
[33] = target: PIM2 (human) (UniProt Q9P1W9)
[34] = target: GCK (human) (UniProt Q12851); settings: compound 100.0 µM
[35] = target: CSNK2A1 (human) (UniProt P68400)
Chain of CSNK2A1 (human) (P68400 whole entry, looked up): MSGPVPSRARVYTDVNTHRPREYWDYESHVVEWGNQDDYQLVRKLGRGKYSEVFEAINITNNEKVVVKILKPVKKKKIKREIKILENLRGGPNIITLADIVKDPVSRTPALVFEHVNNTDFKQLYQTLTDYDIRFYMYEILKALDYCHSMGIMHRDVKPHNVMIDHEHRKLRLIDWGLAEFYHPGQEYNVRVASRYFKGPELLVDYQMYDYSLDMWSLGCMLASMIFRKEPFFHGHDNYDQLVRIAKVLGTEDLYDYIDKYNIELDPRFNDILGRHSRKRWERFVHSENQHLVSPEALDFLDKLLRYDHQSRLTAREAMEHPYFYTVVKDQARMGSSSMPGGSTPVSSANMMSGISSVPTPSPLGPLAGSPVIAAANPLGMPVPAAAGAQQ

Chain of PAK2 (human), Q13177 [T402E] (Q13177 whole entry T402E, looked up): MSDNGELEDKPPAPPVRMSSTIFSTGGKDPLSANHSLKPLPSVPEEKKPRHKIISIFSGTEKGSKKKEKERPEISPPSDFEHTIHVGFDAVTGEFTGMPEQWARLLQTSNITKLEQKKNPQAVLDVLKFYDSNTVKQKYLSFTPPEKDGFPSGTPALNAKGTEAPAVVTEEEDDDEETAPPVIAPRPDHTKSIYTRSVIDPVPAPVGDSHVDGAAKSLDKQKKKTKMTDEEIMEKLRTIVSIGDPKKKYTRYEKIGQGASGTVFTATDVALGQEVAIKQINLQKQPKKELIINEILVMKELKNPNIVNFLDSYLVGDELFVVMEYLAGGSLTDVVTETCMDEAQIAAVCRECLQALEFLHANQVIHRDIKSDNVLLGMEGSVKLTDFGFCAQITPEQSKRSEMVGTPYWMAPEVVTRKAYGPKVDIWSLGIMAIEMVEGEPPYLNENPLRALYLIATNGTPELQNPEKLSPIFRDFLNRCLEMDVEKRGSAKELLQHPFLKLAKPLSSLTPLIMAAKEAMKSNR
Chain of PIM1 (human) (P11309 whole entry, looked up): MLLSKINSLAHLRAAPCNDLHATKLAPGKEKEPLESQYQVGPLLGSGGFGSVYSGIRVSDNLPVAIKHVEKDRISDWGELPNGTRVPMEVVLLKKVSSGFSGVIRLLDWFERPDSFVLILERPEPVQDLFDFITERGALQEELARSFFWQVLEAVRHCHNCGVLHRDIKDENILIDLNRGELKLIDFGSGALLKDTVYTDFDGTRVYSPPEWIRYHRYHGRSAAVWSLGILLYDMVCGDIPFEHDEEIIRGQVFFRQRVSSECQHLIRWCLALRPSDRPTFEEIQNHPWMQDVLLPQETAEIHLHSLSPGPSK
Chain of MAP3K9 (human) (P80192 whole entry, looked up): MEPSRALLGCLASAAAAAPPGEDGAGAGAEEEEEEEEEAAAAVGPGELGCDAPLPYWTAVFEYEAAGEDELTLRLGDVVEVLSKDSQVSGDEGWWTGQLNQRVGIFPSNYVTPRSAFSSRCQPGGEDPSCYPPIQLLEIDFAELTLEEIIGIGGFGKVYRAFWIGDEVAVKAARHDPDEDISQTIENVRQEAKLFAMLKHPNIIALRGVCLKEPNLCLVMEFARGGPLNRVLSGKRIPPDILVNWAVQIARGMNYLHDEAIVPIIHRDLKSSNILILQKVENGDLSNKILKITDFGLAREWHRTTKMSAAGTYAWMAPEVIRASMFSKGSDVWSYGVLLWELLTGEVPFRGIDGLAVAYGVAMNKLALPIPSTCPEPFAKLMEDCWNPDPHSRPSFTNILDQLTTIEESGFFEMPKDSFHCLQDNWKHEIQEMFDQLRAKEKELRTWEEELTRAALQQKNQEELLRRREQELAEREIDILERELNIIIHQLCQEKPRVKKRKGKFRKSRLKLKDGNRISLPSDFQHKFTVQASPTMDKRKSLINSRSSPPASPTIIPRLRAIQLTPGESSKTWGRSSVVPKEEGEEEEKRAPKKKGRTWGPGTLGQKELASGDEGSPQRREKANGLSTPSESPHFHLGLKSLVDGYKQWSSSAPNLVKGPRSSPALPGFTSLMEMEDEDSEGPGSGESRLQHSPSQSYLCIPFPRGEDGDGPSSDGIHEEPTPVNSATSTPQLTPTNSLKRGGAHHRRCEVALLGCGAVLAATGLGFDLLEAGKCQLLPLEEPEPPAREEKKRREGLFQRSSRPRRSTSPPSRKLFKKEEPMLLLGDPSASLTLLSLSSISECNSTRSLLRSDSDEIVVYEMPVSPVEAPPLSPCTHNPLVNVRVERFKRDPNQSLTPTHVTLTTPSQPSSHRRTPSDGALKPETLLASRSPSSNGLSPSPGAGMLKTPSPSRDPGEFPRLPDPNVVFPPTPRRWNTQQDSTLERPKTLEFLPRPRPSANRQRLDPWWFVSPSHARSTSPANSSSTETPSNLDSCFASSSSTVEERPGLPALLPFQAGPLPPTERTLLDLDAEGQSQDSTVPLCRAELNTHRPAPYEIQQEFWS
Chain of EPHA4 (human) (P54764 whole entry, looked up): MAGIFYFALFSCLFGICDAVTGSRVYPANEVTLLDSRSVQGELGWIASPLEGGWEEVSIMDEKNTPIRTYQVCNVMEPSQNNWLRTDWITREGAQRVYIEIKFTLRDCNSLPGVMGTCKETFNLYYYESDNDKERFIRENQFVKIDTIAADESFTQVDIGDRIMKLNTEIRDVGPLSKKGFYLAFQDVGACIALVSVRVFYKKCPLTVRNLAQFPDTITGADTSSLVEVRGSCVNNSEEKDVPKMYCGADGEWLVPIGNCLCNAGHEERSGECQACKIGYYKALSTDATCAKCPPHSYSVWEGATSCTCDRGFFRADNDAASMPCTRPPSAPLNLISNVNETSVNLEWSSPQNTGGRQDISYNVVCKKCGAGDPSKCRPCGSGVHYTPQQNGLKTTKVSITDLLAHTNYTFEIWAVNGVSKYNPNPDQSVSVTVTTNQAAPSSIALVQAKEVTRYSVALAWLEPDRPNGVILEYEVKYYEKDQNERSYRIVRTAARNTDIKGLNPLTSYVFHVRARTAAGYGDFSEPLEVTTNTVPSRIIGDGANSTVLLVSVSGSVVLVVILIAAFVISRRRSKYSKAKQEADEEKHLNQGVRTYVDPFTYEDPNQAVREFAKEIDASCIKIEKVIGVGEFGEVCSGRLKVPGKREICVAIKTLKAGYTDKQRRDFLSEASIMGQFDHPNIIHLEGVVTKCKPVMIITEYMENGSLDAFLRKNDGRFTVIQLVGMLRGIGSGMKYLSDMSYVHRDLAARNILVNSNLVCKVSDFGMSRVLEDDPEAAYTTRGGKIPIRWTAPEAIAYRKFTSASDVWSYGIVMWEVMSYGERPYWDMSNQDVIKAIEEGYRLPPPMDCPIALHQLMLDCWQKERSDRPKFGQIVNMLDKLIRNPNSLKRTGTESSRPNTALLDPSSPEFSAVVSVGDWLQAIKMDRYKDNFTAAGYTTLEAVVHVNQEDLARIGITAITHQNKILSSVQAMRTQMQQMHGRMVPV
Chain of MAPKAPK2 (human) (P49137 whole entry, looked up): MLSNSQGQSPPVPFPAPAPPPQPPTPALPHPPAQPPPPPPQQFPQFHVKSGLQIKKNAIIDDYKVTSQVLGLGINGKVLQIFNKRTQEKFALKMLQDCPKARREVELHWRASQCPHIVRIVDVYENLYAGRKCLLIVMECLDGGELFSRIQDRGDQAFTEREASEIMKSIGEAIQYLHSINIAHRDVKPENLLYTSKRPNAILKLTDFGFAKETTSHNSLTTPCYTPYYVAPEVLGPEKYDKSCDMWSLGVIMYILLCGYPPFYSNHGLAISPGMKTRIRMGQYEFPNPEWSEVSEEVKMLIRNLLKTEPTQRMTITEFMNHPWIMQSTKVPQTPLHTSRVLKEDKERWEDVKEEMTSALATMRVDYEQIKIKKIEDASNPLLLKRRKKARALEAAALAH
Chain of PAK6 (human) (Q9NQU5 whole entry, looked up): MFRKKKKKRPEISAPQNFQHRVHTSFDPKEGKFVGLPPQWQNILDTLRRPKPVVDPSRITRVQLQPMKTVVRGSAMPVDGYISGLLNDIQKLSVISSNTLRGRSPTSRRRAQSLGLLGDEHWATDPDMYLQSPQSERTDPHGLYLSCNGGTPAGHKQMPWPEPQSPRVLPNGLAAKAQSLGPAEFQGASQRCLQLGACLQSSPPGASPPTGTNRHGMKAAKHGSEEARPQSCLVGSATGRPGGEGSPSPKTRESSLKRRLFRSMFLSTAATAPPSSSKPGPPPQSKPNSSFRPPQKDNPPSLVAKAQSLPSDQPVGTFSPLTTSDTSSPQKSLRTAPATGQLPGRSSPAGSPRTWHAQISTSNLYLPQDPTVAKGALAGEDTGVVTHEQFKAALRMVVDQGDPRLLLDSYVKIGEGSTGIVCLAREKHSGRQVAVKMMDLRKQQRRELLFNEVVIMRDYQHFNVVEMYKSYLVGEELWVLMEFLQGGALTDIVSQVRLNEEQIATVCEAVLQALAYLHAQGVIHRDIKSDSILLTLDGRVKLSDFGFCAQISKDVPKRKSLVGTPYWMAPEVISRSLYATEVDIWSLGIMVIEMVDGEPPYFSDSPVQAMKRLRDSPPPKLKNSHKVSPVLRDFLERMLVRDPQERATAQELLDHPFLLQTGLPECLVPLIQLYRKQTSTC

Structure (SMILES): COC(=O)/C=C/C(=O)OC
- residual activity ([1]; compound 10.0 µM): 77%
- residual activity ([1]; compound 100.0 µM): 75%
- residual activity ([1]; compound 1000.0 µM): 87%
- residual activity ([2]; compound 100.0 µM): 92%
- residual activity ([2]; compound 1000.0 µM): 96%
- residual activity ([3]; compound 10.0 µM): 93%
- residual activity ([3]; compound 100.0 µM): 88%
- residual activity ([3]; compound 1000.0 µM): 105%
- residual activity ([4]; compound 10.0 µM): 99%
- residual activity ([4]; compound 100.0 µM): 107%
- residual activity ([4]; compound 1000.0 µM): 101%
- residual activity ([5]; compound 100.0 µM): 93%
- residual activity ([5]; compound 1000.0 µM): 97%
- residual activity ([6]; compound 10.0 µM): 101%
- residual activity ([6]; compound 100.0 µM): 107%
- residual activity ([6]; compound 1000.0 µM): 110%
- residual activity ([7]; compound 10.0 µM): 98%
- residual activity ([7]; compound 100.0 µM): 93%
- residual activity ([7]; compound 1000.0 µM): 93%
- residual activity ([8]; compound 100.0 µM): 108%
- residual activity ([8]; compound 1000.0 µM): 84%
- residual activity ([9]; compound 10.0 µM): 99%
- residual activity ([9]; compound 100.0 µM): 102%
- residual activity ([9]; compound 1000.0 µM): 104%
- residual activity ([10]; compound 10.0 µM): 114%
- residual activity ([10]; compound 100.0 µM): 116%
- residual activity ([10]; compound 1000.0 µM): 118%
- residual activity ([11]; compound 10.0 µM): 107%
- residual activity ([11]; compound 100.0 µM): 105%
- residual activity ([12]; compound 10.0 µM): 84%
- residual activity ([12]; compound 100.0 µM): 91%
- residual activity ([12]; compound 1000.0 µM): 85%
- residual activity ([13]; compound 10.0 µM): 90%
- residual activity ([13]; compound 100.0 µM): 94%
- residual activity ([13]; compound 1000.0 µM): 101%
- residual activity ([14]; compound 10.0 µM): 101%
- residual activity ([14]; compound 100.0 µM): 103%
- residual activity ([14]; compound 1000.0 µM): 104%
- residual activity ([15]; compound 10.0 µM): 92%
- residual activity ([15]; compound 100.0 µM): 86%
- residual activity ([15]; compound 1000.0 µM): 93%
- residual activity ([16]; compound 10.0 µM): 103%
- residual activity ([16]; compound 100.0 µM): 108%
- residual activity ([16]; compound 1000.0 µM): 112%
- residual activity ([17]; compound 100.0 µM): 99%
- residual activity ([17]; compound 1000.0 µM): 102%
- residual activity [18]: 122%
- residual activity [19]: 135%
- residual activity ([20]; compound 10.0 µM): 91%
- residual activity ([20]; compound 100.0 µM): 101%
- residual activity ([20]; compound 1000.0 µM): 103%
- residual activity ([21]; compound 100.0 µM): 109%
- residual activity ([21]; compound 1000.0 µM): 118%
- residual activity ([22]; compound 100.0 µM): 106%
- residual activity ([22]; compound 1000.0 µM): 111%
- residual activity ([23]; compound 10.0 µM): 105%
- residual activity ([23]; compound 100.0 µM): 101%
- residual activity ([24]; compound 10.0 µM): 96%
- residual activity ([24]; compound 100.0 µM): 106%
- residual activity ([24]; compound 1000.0 µM): 92%
- residual activity ([25]; compound 10.0 µM): 87%
- residual activity ([25]; compound 100.0 µM): 112%
- residual activity ([25]; compound 1000.0 µM): 135%
- residual activity ([26]; compound 10.0 µM): 98%
- residual activity ([26]; compound 100.0 µM): 105%
- residual activity ([26]; compound 1000.0 µM): 119%
- residual activity [27]: 103%
- residual activity ([28]; compound 10.0 µM): 90%
- residual activity ([28]; compound 100.0 µM): 98%
- residual activity ([28]; compound 1000.0 µM): 103%
- residual activity ([29]; compound 10.0 µM): 89%
- residual activity ([29]; compound 100.0 µM): 100%
- residual activity ([30]; compound 100.0 µM): 108%
- residual activity ([30]; compound 1000.0 µM): 132%
- residual activity ([31]; compound 10.0 µM): 101%
- residual activity ([31]; compound 100.0 µM): 104%
- residual activity ([31]; compound 1000.0 µM): 86%
- residual activity ([32]; compound 10.0 µM): 99%
- residual activity ([32]; compound 100.0 µM): 101%
- residual activity ([32]; compound 1000.0 µM): 115%
- residual activity ([33]; compound 10.0 µM): 117%
- residual activity ([33]; compound 100.0 µM): 109%
- residual activity ([33]; compound 1000.0 µM): 116%
- residual activity [34]: 107%
- residual activity ([35]; compound 10.0 µM): 98%
- residual activity ([35]; compound 100.0 µM): 95%
- residual activity ([35]; compound 1000.0 µM): 91%
